Experimental data reported in PubChem BioAssay (NCI).
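Values below derive from 48-hour exposures of cells grown in 96-well plates, with endpoints linearly interpolated between the two concentrations bracketing the appropriate inhibition level. TGI is the concentration that stops growth completely.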

Assays:
Assay in all cases: inhibition of tumour cell growth, NCI panel, 48 h
A549 NSCLC = system: A549 NSCLC
HT29 colon = system: HT29 colon
IGROV1 ovarian = system: IGROV1 ovarian
SF-268 CNS = system: SF-268 CNS
HCT-15 colon = system: HCT-15 colon
CCRF-CEM leukemia = system: CCRF-CEM leukemia
NCI/ADR-RES ovarian = system: NCI/ADR-RES ovarian
RXF 393 renal = system: RXF 393 renal
OVCAR-4 ovarian = system: OVCAR-4 ovarian
M14 melanoma = system: M14 melanoma
HS 578T breast = system: HS 578T breast
HCC-2998 colon = system: HCC-2998 colon
HOP-62 NSCLC = system: HOP-62 NSCLC
COLO 205 colon = system: COLO 205 colon
OVCAR-5 ovarian = system: OVCAR-5 ovarian
SNB-75 CNS = system: SNB-75 CNS
SK-MEL-2 melanoma = system: SK-MEL-2 melanoma
LOX IMVI melanoma = system: LOX IMVI melanoma

SMILES	TGI (A549 NSCLC)	TGI (HT29 colon)	TGI (IGROV1 ovarian)	TGI (SF-268 CNS)	TGI (HCT-15 colon)	TGI (CCRF-CEM leukemia)	TGI (NCI/ADR-RES ovarian)	TGI (RXF 393 renal)	TGI (OVCAR-4 ovarian)	TGI (M14 melanoma)	TGI (HS 578T breast)	TGI (HCC-2998 colon)	TGI (HOP-62 NSCLC)	TGI (COLO 205 colon)	TGI (OVCAR-5 ovarian)	TGI (SNB-75 CNS)	TGI (SK-MEL-2 melanoma)	TGI (LOX IMVI melanoma)
N#CCCN(CCC#N)c1ccc(C(N=Nc2ccccc2)=Nc2ccc(Cl)cc2)cc1	> 100 µM	> 100 µM	> 100 µM	> 100 µM	> 100 µM	> 100 µM	> 100 µM	> 100 µM	> 100 µM	> 100 µM	> 100 µM	> 100 µM	> 100 µM	> 100 µM	> 100 µM	> 100 µM		
CCOC(=O)C(=[N+]=[N-])C(=O)CN1C(=O)C2CC(C)=C(C)CC2C1O (stereo not drawn)	> 100 µM	> 100 µM	> 100 µM	> 100 µM		> 100 µM	> 100 µM	> 100 µM		> 100 µM	> 100 µM	> 100 µM	> 100 µM	> 100 µM	> 100 µM	> 100 µM	> 100 µM	> 100 µM
CSc1c(C(=O)Nc2ccc(C)cc2)c(N)n(N)c(=O)c1C#N	> 100 µM	> 100 µM	> 100 µM	> 100 µM	> 100 µM	> 100 µM	> 100 µM	> 100 µM	> 100 µM	> 100 µM	> 100 µM	> 100 µM		> 100 µM	> 100 µM	> 100 µM	> 100 µM	> 100 µM
COc1cc(OC)c2c(=O)c(OC)c(-c3ccc4c(c3)OCO4)oc2c1OC	> 100 µM	> 100 µM	> 100 µM	> 100 µM	> 100 µM	83.5 µM	> 100 µM	> 100 µM		> 100 µM	> 100 µM	> 100 µM	> 100 µM	> 100 µM	> 100 µM	> 100 µM	> 100 µM	> 100 µM
O=C(NNC(=S)Nc1ccc(Br)cc1)c1cc(-c2ccccc2)nc2ccccc12	58 µM	82.4 µM	> 100 µM	> 100 µM	66.9 µM	42.8 µM	51.8 µM	40.4 µM	46.5 µM	34.8 µM	94.2 µM	30.8 µM	42 µM	53 µM	79.3 µM	> 100 µM	41.7 µM	
O=C(CC(C(=O)c1cccs1)c1cccs1)c1ccccc1Cl (stereo not drawn)	> 100 µM	> 100 µM	> 100 µM	> 100 µM	> 100 µM	> 100 µM	> 100 µM		> 100 µM	> 100 µM	> 100 µM	> 100 µM	> 100 µM	> 100 µM	> 100 µM	> 100 µM	> 100 µM	> 100 µM
CC(C)(C)OC(=O)NCCC(=O)NC1(c2cc3ccccc3s2)CCCCC1	38.6 µM	29.7 µM	36.5 µM		30.6 µM	27.5 µM	41.6 µM	26.2 µM	29.1 µM	34.2 µM	48.8 µM	47.5 µM	35.3 µM	32.9 µM	39.9 µM	38.7 µM	44.9 µM	36.5 µM
O=c1c2ccccc2nc2n1C(c1ccc([N+](=O)[O-])cc1)C2(c1ccccc1)c1ccccc1 (stereo not drawn)	> 100 µM	> 100 µM	> 100 µM	> 100 µM	> 100 µM	> 100 µM	> 100 µM	> 100 µM	> 100 µM	> 100 µM	> 100 µM		> 100 µM	> 100 µM	> 100 µM		> 100 µM	> 100 µM
O=C1C(Cl)C2(CC(/C=C/c3ccccc3O)=NN2c2cccc(S(=O)(=O)O)c2)N1c1nc2ccccc2s1 (stereo not drawn)	82.5 µM	39 µM	31.2 µM	43.4 µM	44.6 µM	34.7 µM	> 100 µM	> 100 µM	27.4 µM	37.8 µM	> 100 µM	29 µM		38.7 µM	45.8 µM	> 100 µM	40.8 µM	24.7 µM
Cc1ccc(Nc2[nH]c(=O)[nH]c(=O)c2C)cc1Cl	> 100 µM	> 100 µM	> 100 µM	> 100 µM	> 100 µM		> 100 µM	> 100 µM	> 100 µM	> 100 µM	> 100 µM	> 100 µM	> 100 µM	> 100 µM	> 100 µM	> 100 µM	> 100 µM	> 100 µM
CCCCCCCNC(P(=O)(O)O)P(=O)(O)O	> 100 µM	> 100 µM	> 100 µM	> 100 µM	> 100 µM	> 100 µM	> 100 µM		> 100 µM	> 100 µM	97.5 µM	> 100 µM	> 100 µM	> 100 µM	> 100 µM	43.3 µM	> 100 µM	> 100 µM
COc1cc(/C=C/c2nc(N)nnc2C)cc(OC)c1OC	> 79.4 µM	39 µM	37.3 µM	> 54.4 µM	38.9 µM	55.4 µM	> 90.2 µM	> 64.4 µM	> 73.7 µM	> 56.4 µM	> 67.5 µM	29.5 µM	29 µM	> 53 µM	> 58.9 µM		> 54.4 µM	> 35.9 µM
COc1cc(C(=O)C2C(=O)c3ccccc3C2C2(O)c3ccccc3CC2C(O)c2cc(OC)c(OC)c(OC)c2)cc(OC)c1OC (stereo not drawn)	> 100 µM	> 100 µM	> 100 µM	> 100 µM	> 100 µM		> 100 µM	> 100 µM	> 100 µM	> 100 µM	> 100 µM	> 100 µM	> 100 µM	> 100 µM	> 100 µM	94.3 µM	> 100 µM	> 100 µM
